Source: patent US8173378B2, “Methods of using an alpha-1-adrenergic receptor having altered ligand affinity” (Pharmacome LLC, priority 2007, dated 2012)

Assays:
[1] = target: T1, α1L-adrenergic receptor (α1A-adrenergic receptor / CRELD1α complex) in α1L cells (Homo sapiens, UniProt P35348); experiment: Whole-cell [3H]-silodosin binding in α1L cells (CHO-K1 coexpressing ADRA1A and CRELD1α); details: for sensitivity of receptors in α1L cells (in words): whole-cell competition binding
T1 construct: the coding region of the ADRA1A gene was subcloned into the EcoRI restriction enzyme site of the multicloning site A of the pIRES; expressed in transfected cells
T1 sequence (P35348 1-466): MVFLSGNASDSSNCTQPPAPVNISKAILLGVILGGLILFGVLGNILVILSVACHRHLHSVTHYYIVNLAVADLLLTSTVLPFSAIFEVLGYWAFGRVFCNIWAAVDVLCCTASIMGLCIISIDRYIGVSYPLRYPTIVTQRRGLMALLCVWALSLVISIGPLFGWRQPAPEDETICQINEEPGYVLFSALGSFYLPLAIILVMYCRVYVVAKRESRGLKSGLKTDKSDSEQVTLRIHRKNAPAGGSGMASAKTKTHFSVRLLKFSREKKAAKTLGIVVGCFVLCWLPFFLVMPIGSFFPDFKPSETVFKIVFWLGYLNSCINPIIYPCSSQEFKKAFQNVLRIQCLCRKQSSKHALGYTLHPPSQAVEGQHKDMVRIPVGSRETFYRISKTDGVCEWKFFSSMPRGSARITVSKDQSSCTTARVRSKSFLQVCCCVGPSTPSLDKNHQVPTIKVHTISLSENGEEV
T1 sequence (Q96HD1 30-420 partner): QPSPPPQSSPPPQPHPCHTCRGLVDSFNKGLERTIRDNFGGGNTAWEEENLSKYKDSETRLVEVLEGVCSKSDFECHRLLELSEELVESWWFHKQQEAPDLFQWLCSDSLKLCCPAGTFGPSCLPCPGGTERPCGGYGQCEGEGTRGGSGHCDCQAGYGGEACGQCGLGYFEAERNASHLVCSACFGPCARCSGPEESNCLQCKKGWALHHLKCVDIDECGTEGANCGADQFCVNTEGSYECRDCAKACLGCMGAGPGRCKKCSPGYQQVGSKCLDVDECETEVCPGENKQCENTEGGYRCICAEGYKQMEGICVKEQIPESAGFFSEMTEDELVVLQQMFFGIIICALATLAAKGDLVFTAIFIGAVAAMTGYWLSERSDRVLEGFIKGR
Description: (§1) The vector was amplified/purified in a conventional method, and then transfected into CHO-K1 cells, which are cells of Chinese Hamster ovarian origin, with Lipofectamine 2000 (Invitrogen Corporation) according to the manufacturer's protocol. Two days after the transfection, 1200 μg/ml of the antibiotic Geneticin (G418) were added to the DMEM culture medium. […] The G418-resistant cells were diluted, suspended, and injected dividedly into a 96-well plate so that an average of 0.5 cells was put in per well, and a single colony was chosen. This operation was repeated three times, whereby a stable clone (au cells) having coexpressed the ADRA1A gene and the CREDL1α gene was produced. Further, as control groups, the cells (α1A cells) having stably expressed only the ADRA1A gene and the cells (CREDL1α cells) having stably expressed only the CREDL1α gene were produced.
The stable clone was studied by a pharmacological binding method with [^3H]-silodosin, which is a radioligand. An experiment was conducted using a whole-cell binding method. That is, cells were scattered two to three days before the experiment so that they are semi-confluent, washed twice with ice-cold PBS, and then scraped by a scraper. The cells thus collected were suspended again in a Krebs-HEPES solution, and then incubated at 4° C. for four hours together with [^3H]-silodosin and another drug as needed. Thereafter, the cells were filtered/washed by a Whatmann GC/F filter pretreated with polyethylene imine, and the radioactivity was measured by a liquid scintillation counter. The non-specific binding was evaluated as binding in the presence of 30 μM phenotolamine.
The binding of [^3H]-silodosin of various concentrations (30 to 1000 pM) to the α1L cells was examined (FIG. 1).
Silodosin is known to bind selectively to the α1A- and α1L-subtypes with a high affinity. […] The α1A cells were used as control cell line. [^3H]-silodosin is known as a selective antagonist of α1A- and α1L-subtypes both.

[2] = target: T2, α1A-adrenergic receptor in α1A cells (Homo sapiens, UniProt P35348); experiment: Whole-cell [3H]-silodosin binding in α1A cells (CHO-K1 expressing only ADRA1A)
T2 construct: the coding region of the ADRA1A gene was subcloned into the EcoRI restriction enzyme site of the multicloning site A of the pIRES; expressed in transfected cells
T2 sequence (P35348 1-466): T1 sequence (P35348 1-466)
Description: as §1
The stable clone was studied by a pharmacological binding method with [^3H]-silodosin, which is a radioligand. An experiment was conducted using a whole-cell binding method. […] Thereafter, the cells were filtered/washed by a Whatmann GC/F filter pretreated with polyethylene imine, and the radioactivity was measured by a liquid scintillation counter. The non-specific binding was evaluated as binding in the presence of 30 μM phenotolamine. […]

[3] = target: T3, α1L-adrenergic receptors in human prostate tissue segments (Homo sapiens, UniProt P35348); experiment: [3H]-silodosin binding in human prostate tissue segments
T3 construct: from tissue; host or cells: human prostate tissue segments
T3 sequence (P35348 1-466): T1 sequence (P35348 1-466)

α1A-adrenergic receptor = target: T4, α1A-adrenergic receptor (Homo sapiens, UniProt P35348); details: α1A subtype; cited from earlier work
T4 sequence (P35348 1-466): T1 sequence (P35348 1-466)

α1L-adrenergic receptor = details: α1L subtype; cited from earlier work
α1B-adrenergic receptor = target: T5, α1B-adrenergic receptor (Homo sapiens, UniProt P35368); details: α1B subtype; cited from earlier work
T5 sequence (P35368 1-520): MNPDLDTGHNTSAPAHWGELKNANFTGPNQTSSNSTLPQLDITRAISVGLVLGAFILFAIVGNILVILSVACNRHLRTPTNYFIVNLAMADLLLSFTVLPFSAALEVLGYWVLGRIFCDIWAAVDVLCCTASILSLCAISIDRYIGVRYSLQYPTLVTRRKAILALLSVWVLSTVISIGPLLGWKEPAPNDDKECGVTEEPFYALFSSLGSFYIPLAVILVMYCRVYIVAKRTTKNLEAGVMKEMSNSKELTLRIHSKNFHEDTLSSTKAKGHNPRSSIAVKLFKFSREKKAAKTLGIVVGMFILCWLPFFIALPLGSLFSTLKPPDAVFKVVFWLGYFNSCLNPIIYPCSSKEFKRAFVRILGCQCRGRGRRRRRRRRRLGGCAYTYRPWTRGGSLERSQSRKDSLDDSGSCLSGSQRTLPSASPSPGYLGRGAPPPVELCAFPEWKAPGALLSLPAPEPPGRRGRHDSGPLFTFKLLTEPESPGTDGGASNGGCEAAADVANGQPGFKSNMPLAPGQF

α1D-adrenergic receptor = target: T6, α1D-adrenergic receptor (Homo sapiens, UniProt P25100); details: α1D subtype; cited from earlier work
T6 sequence (P25100 1-572): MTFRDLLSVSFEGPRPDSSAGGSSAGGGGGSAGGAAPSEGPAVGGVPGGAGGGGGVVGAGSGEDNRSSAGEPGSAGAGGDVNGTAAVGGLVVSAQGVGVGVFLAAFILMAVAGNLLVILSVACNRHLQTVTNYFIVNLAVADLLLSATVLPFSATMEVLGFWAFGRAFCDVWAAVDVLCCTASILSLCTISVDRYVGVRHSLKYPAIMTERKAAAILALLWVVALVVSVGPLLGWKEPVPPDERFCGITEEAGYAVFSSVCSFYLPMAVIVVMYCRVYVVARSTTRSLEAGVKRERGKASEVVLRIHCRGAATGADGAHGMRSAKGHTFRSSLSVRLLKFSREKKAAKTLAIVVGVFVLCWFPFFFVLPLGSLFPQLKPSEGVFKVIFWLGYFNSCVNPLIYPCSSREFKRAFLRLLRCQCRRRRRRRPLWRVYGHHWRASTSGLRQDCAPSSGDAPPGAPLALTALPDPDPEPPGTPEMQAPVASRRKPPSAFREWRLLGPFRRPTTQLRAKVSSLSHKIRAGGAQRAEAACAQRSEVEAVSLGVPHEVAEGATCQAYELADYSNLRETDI

SMILES	maximum binding amount (Bmax) ([1]; α1L cells, saturation binding, 30 to 1000 pM) [fmol/mg protein]	Kd ([1]; α1L cells, saturation binding, whole-cell method) [nM]	Kd ([2]; α1A cells, whole-cell method, read-out: pKD (dissociation equilibrium constant from saturation binding curve) (converted)) [nM]	Kd ([3]; human prostate tissue segments, read-out: pKD (dissociation equilibrium constant from saturation binding curve) (converted)) [nM]	Ki [1] [nM]	sensitivity of receptors in α1L cells (in words) ([1]; α1L cells)	Ki [2] [nM]	Ki [3] [nM]	Affinity (pKb) (α1A-adrenergic receptor)	Affinity (pKb) (α1L-adrenergic receptor)	Affinity (pKb) (α1B-adrenergic receptor)	Affinity (pKb) (α1D-adrenergic receptor)
C[C@H](Cc1cc2c(c(C(N)=O)c1)N(CCCO)CC2)NCCOc1ccccc1OCC(F)(F)F [[^3H]-silodosin]	134	0.843	0.2	0.316								
CC(C)(Cc1c[nH]c2ccc(Cl)cc12)NCCOc1ccccc1OCC1CC1.Cl [RS-17053, N-[2-(2-cyclopropylmethoxyphenoxy)ethyl]-5-chloro-α,α-dimethyl-1H-indole-3-ethanamine hydrochloride]					> 1000	low in sensitivity	1.58	251	9.1-8.4	6.3	7.8	7.8
CCOc1ccccc1OCCN[C@H](C)Cc1ccc(OC)c(S(N)(=O)=O)c1 [tamsulosin]						high sensitivity					9.3	9.9
C[C@H](Cc1cc2c(c(C(N)=O)c1)N(CCCO)CC2)NCCOc1ccccc1OCC(F)(F)F [silodosin]									10.7-9.5	10.7-9.5	8.1	8.6
COc1ccccc1N1CCN(CCN2C(=O)CC3(CCCC3)CC2=O)CC1.Cl.Cl [BMY 7378, 8-[2-[4-(2-methoxyphenyl)-1-piperazinyl]ethyl]8-azaspiro[4,5]decane7,9-dione dihydrochloride]						only low sensitivity					7.4	
